This is an account of results in patent US20150299143A1, “SUBSTITUTED TRIAZOLE AND IMIDAZOLE COMPOUNDS” (HOFFMANN-LA ROCHE INC., priority 2012, published 2015).

The test system of assay [1] is Th1/17 differentiation, B cell effector functions and production of inflammatory cytokines (IL-6, TNF-α, IL-23). To be noted: cited from earlier work.
Assay [2] has as its system mouse CAIA and CIA arthritis models. To be noted: cited from earlier work.
For another assay, the system named is MRL/lpr lupus-prone mice. To be noted: cited from earlier work.
Assay [3] concerns DSS-induced colitis model in mice. The following applies: cited from earlier work.
Assay [4] concerns the target T1, β 5i (chymotrypsin-like activity) (Homo sapiens, UniProt P20618+P28062).
T1 construct: protease activity associated with the proteasome complex in cultured cells; endogenous in cells; host or cells: Ramos cells
The experiment in a line: Cell-Based Proteasome subunit activity/selectivity assay, β5i, substrate (ANW)2Rh110. To be noted: Ramos cells; substrate (ANW)2Rh110 (β5i); highest concentration tested 20 μM; read-out: Ic50:ramos:ac-(anw)2-r110. The gist of the method: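 Cell-based fluorogenic assay measuring chymotrypsin-like β5i proteasome activity using the substrate (ANW)2Rh110. Cultured cells received 0.5 μl of 100× 4-fold serial diluted compounds or DMSO per well, were incubated 30 minutes at 37° C, then equilibrated 15 minutes at room temperature. After shaking one minute @ 700 rpm and 120 min room-temperature incubation, fluorescence was read at 500 nm excitation/519 nm emission on an Envision reader.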

In assay [5] the target is T2, β5c (chymotrypsin-like activity) (Homo sapiens, UniProt P20618+P28074).
T2 construct: protease activity associated with the proteasome complex in cultured cells; endogenous in cells; host or cells: Ramos cells
The experiment in a line: Cell-Based Proteasome subunit activity/selectivity assay, β5c, substrate (WLA)2Rh110. To be noted: Ramos cells; substrate (WLA)2Rh110 (β5c); highest concentration tested 20 μM; read-out: Ic50:ramos:rh110-(wla)2. The method in brief: (§1)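 Subunit activity in cultured cells read with subunit-selective fluorogenic Rh110 substrates: (LLE)2 for β1c, (PAL)2 for β1i, (KQL)2 for β2c/2i, (WLA)2 for β5c. Cells exposed to 4-fold serially diluted compound (top 20 μM) 30 min at 37 °C, then substrate 120 min at room temperature; fluorescence 500/519 nm.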

For a further assay, the system named is β 2c/2i (trypsin-like). The experiment in a line: Cell-Based Proteasome subunit activity/selectivity assay, β2c/2i, substrate (KQL)2Rh110. To be noted: Ramos cells; substrate (KQL)2Rh110 (β2c/2i); highest concentration tested 20 μM. The gist of the method: as §1
The target of a further assay is T3, β 1i (caspase-like) (Homo sapiens, UniProt P28065+P40306).
T3 construct: protease activity associated with the proteasome complex in cultured cells; endogenous in cells; host or cells: Ramos cells
The experiment in a line: Cell-Based Proteasome subunit activity/selectivity assay, β1i, substrate (PAL)2Rh110. The following applies: Ramos cells; substrate (PAL)2Rh110 (β1i); highest concentration tested 20 μM; read-out: Ic50:ramos:rh110-(pal)2. The method in brief:
as §1

A further assay concerns the target T4, β 1c (caspase-like) (Homo sapiens, UniProt P28072+Q99436).
T4 construct: protease activity associated with the proteasome complex in cultured cells; endogenous in cells; host or cells: Ramos cells
Nature of the assay: Cell-Based Proteasome subunit activity/selectivity assay, β1c, substrate (LLE)2Rh110. To be noted: Ramos cells; substrate (LLE)2Rh110 (β1c); highest concentration tested 20 μM; read-out: Ic50:ramos:rh110-(lle)2. The method in brief: as §1

A value given as a limit tells only on which side of the number the result lay.

As to `COc1ccc(C[C@H](NC(=O)[C@H](C)NC(=O)CN2CCOCC2)C(=O)N[C@@H](Cc2ccccc2)C(=O)[C@@]2(C)CO2)cc1` [PR-957], in assay [1], the “block of Th1/17 differentiation, B cell effector functions and production of inflammatory cytokines (IL-6, TNF-α, IL-23)” value is reported as “potently block”. In assay [2], the disease score entry is recorded as “significantly decrease disease score”. In the assay on MRL/lpr lupus-prone mice, the disease progression result is listed as “prevented disease progression”; the “plasma cells numbers and levels of anti-dsDNA IgG” value is “reduced plasma cells numbers and levels of anti-dsDNA IgG”. Besides, the “inflammation and tissue destruction” value in assay [3] is “reduced inflammation and tissue destruction”.

On to `CCOC(=O)[C@H](CCc1ccccc1)NC(=O)c1cn(CCNC(=O)c2ccc(OC)c(OC)c2OC)nn1` [Example 80, (S)-4-Phenyl-2-({1-[2-(2,3,4-trimethoxy-benzoylamino)-ethyl]-1H-[1,2,3]triazole-4-carbonyl}-amino)-butyric acid ethyl ester], for which the IC50 is 447 nM in [4]; at least 20 µM in [5]; at least 20 µM in the assay with β 2c/2i (trypsin-like); at least 20 µM at β 1i (caspase-like); at least 20 µM at β 1c (caspase-like).

As to `COc1ccc(C(=O)NCCn2cc(C(=O)NCc3ccc(C)cc3)nn2)c(OC)c1OC` [Example 3, 1-[2-(2,3,4-Trimethoxy-benzoylamino)-ethyl]-1H-[1,2,3]triazole-4-carboxylic acid 4-methyl-benzylamide], the IC50 was 2900 nM in assay [4]; at least 20 µM in [5]; at least 20 µM in the assay on β 2c/2i (trypsin-like); at least 20 µM at β 1i (caspase-like); at least 20 µM at β 1c (caspase-like).

Regarding `CCc1ccc(C(C#N)NC(=O)c2cn(CCNC(=O)CC3(O)Cc4ccccc4C3)nn2)cc1` (stereo not drawn) [Example 22, 1-{2-[2-(2-Hydroxy-indan-2-yl)-acetylamino]-ethyl}-1H-[1,2,3]triazole-4-carboxylic acid [cyano-(4-ethyl-phenyl)-methyl]-amide], the IC50 is 9950 nM in assay [4]; at least 20 µM in assay [5]; at least 20 µM with β 2c/2i (trypsin-like); at least 20 µM at β 1i (caspase-like); at least 20 µM on β 1c (caspase-like).

For `CCc1ccc(C(C#N)NC(=O)c2cn(CCNC(=O)c3cc(C(F)(F)F)ccc3F)nn2)cc1` (stereo not drawn) [Example 37, 1-[2-(2-Fluoro-5-trifluoromethyl-benzoylamino)-ethyl]-1H-[1,2,3]triazole-4-carboxylic acid [cyano-(4-ethyl-phenyl)-methyl]-amide], the IC50 in [4] is 71 nM; in assay [5], at least 20 µM; in the assay on β 2c/2i (trypsin-like), at least 20 µM; on β 1i (caspase-like), at least 20 µM; at β 1c (caspase-like) it was at least 20 µM.

As for `CCc1ccc(C(C#N)NC(=O)c2cn(CCNC(=O)c3cc(OC)ccc3F)nn2)cc1` (stereo not drawn) [Example 32, 1-[2-(2-Fluoro-5-methoxy-benzoylamino)-ethyl]-1H-[1,2,3]triazole-4-carboxylic acid [cyano-(4-ethyl-phenyl)-methyl]-amide], the IC50 in [4] is 682 nM; in assay [5], at least 20 µM; in the assay with β 2c/2i (trypsin-like) it was at least 20 µM; on β 1i (caspase-like) it was at least 20 µM; at β 1c (caspase-like), at least 20 µM.
